Relative cell number data for five compounds are collected here from the supplement of paper PMC7661543.

± gives the standard deviation of the averaged measurements.

Common to all, as to assay: relative cell number vs DMSO control (72 h) (% of DMSO); higher = less growth inhibition (more cells)
What all share (conditions): sgRNA knockout: sgNT

One assay relates to HCC-38. On the procedure: (§1)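 QMAP-Seq: a pool of 5 breast cancer cell lines (ZR-75-1, SKBR3, HCC-38, MDA-MB-231, BT-20), each carrying 12 doxycycline-inducible Cas9 sgRNA perturbations (11 knockouts plus non-targeting sgNT), was treated with compounds for 72 h at four 10-fold doses (10 nM-10 uM or 1 nM-1 uM range). Barcodes were amplified and sequenced, and cell number was interpolated from 293T spike-in standard curves. The result is expressed as % of the median of DMSO wells. Two biological replicates.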

For a further assay, the system named is ZR-75-1. The protocol: as §1
The next assay relates to MDA-MB-231. The protocol: as §1
Another assay deals with SKBR3. On the procedure: as §1
The next assay deals with BT-20. On the procedure:
as §1

For the compound `CCOC(=O)c1ccc(N2NC(=O)C(=Cc3ccc([N+](=O)[O-])o3)C2=O)cc1` [PYR41], the relative cell number in the assay on HCC-38 (10 nM) came to 85.8 ± 4.7; in the assay with HCC-38 (100 nM), 89.9 ± 13; with HCC-38 (1000 nM), 101.7 ± 0.8; with HCC-38 (10000 nM), 84.8 ± 5.1; with ZR-75-1 (10 nM), 125 ± 29; with ZR-75-1 (100 nM) it was 72.9 ± 28. Further, the relative cell number worked out at 100 ± 1.6 in the assay with ZR-75-1 (1000 nM); 97.4 ± 40 in the assay with ZR-75-1 (10000 nM); 133 ± 62 with MDA-MB-231 (10 nM); 106 ± 11 in the assay with MDA-MB-231 (100 nM); 87.6 ± 62 with MDA-MB-231 (1000 nM); 111 ± 6.8 in the assay on MDA-MB-231 (10000 nM). In addition, the relative cell number in the assay on SKBR3 (10 nM) came to 106 ± 8.4; with SKBR3 (100 nM) it was 83.5 ± 17; in the assay on SKBR3 (1000 nM), 98.3 ± 18; in the assay on SKBR3 (10000 nM), 64.5 ± 46; in the assay on BT-20 (10 nM), 93.7 ± 24; with BT-20 (100 nM) it was 101 ± 13. Also, the results for the relative cell number with BT-20 (1000 nM) and in the assay with BT-20 (10000 nM) were 103 ± 17 and 102.7 ± 0.59, respectively.

Consider `COc1cc(CCc2cc(NC(=O)c3ccc(N4CC(C)NC(C)C4)cc3)n[nH]2)cc(OC)c1` (stereo not given) [AZD4547], for which the relative cell number in the assay on HCC-38 (10 nM) worked out at 88.6 ± 1.6; in the assay on HCC-38 (100 nM), 64.5 ± 6.9; in the assay on HCC-38 (1000 nM) it was 54.6 ± 1.7; with HCC-38 (10000 nM), 46.8 ± 1.9; with ZR-75-1 (10 nM), 82.1 ± 31; with ZR-75-1 (100 nM), 68.3 ± 13. The relative cell number with ZR-75-1 (1000 nM) came to 83.9 ± 5.3; in the assay with ZR-75-1 (10000 nM), 21.3 ± 10; in the assay on MDA-MB-231 (10 nM), 79.2 ± 13; with MDA-MB-231 (100 nM), 100.2 ± 0.6; with MDA-MB-231 (1000 nM) it was 99.5 ± 11; in the assay on MDA-MB-231 (10000 nM), 40.1 ± 3. For the same compound, the relative cell number in the assay on SKBR3 (10 nM) was determined as 62.3 ± 26; with SKBR3 (100 nM) it was 83 ± 9.8; in the assay with SKBR3 (1000 nM), 94.1 ± 33; with SKBR3 (10000 nM) it was 51 ± 14; with BT-20 (10 nM), 66.6 ± 0.77; in the assay with BT-20 (100 nM), 94.7 ± 4.5. Also, the relative cell number was determined as 81.9 ± 15 with BT-20 (1000 nM) and 56.5 ± 2.4 in the assay with BT-20 (10000 nM).

`N#Cc1ccc(COC[C@H]2O[C@@H](n3c(NCc4ccc(Cl)c(Cl)c4)nc4c(N)ncnc43)[C@H](O)[C@@H]2O)cc1`: the relative cell number in the assay with HCC-38 (10 nM) is 90.8 ± 12; in the assay on HCC-38 (100 nM), 99.2 ± 8.1; in the assay with HCC-38 (1000 nM), 99.1 ± 19; with HCC-38 (10000 nM), 93.9 ± 15; in the assay on ZR-75-1 (10 nM), 105 ± 48; with ZR-75-1 (100 nM), 90.5 ± 13. Moreover, the relative cell number with ZR-75-1 (1000 nM) was 64.7 ± 41; in the assay on ZR-75-1 (10000 nM) it was 39.1 ± 0.67; with MDA-MB-231 (10 nM) it was 83.77 ± 0.66; with MDA-MB-231 (100 nM) it was 98.3 ± 7; in the assay with MDA-MB-231 (1000 nM) it was 115 ± 28; in the assay on MDA-MB-231 (10000 nM), 28.9 ± 0.7. The relative cell number in the assay with SKBR3 (10 nM) turned out to be 105 ± 14; in the assay with SKBR3 (100 nM), 139 ± 29; in the assay with SKBR3 (1000 nM) it was 106 ± 24; in the assay on SKBR3 (10000 nM) it was 60.1 ± 4.3; in the assay on BT-20 (10 nM) it was 108 ± 25; in the assay on BT-20 (100 nM) it was 92.7 ± 6.8. Further, the relative cell number with BT-20 (1000 nM) worked out at 91.1 ± 26; with BT-20 (10000 nM), 73.2 ± 18.

Take `COc1cc2c(cc1-c1c(C)noc1C)ncc1[nH]c(=O)n([C@H](C)c3ccccn3)c12` [IBET151]: the relative cell number in the assay on HCC-38 (10 nM) stood at 85.1 ± 6.5; in the assay with HCC-38 (100 nM) it was 82.8 ± 13; with HCC-38 (1000 nM) it was 60.2 ± 2.5; in the assay with HCC-38 (10000 nM), 53.6 ± 3.3; in the assay with ZR-75-1 (10 nM) it was 65.6 ± 36; with ZR-75-1 (100 nM), 104 ± 28. Besides, the relative cell number in the assay on ZR-75-1 (1000 nM) was determined as 49 ± 4.5; in the assay on ZR-75-1 (10000 nM) it was 37.5 ± 0.4; in the assay with MDA-MB-231 (10 nM), 88.1 ± 9; in the assay with MDA-MB-231 (100 nM), 72.1 ± 3.6; with MDA-MB-231 (1000 nM), 42.4 ± 2; with MDA-MB-231 (10000 nM), 19 ± 15. Further, the relative cell number was 64.9 ± 9 with SKBR3 (10 nM); 88.5 ± 6.6 with SKBR3 (100 nM); 47.8 ± 1.4 in the assay with SKBR3 (1000 nM); 31.9 ± 9.4 with SKBR3 (10000 nM); 82.5 ± 2.4 with BT-20 (10 nM); 90.5 ± 39 in the assay on BT-20 (100 nM). The relative cell number with BT-20 (1000 nM) came out at 72.5 ± 0.91; in the assay on BT-20 (10000 nM), 49.4 ± 3.8.

In the case of `CN(Cc1cnc2nc(N)nc(N)c2n1)c1ccc(C(=O)N[C@@H](CCC(=O)O)C(=O)O)cc1` [Methotrexate], the relative cell number in the assay on HCC-38 (10 nM) was 105 ± 3.4; with HCC-38 (100 nM), 56 ± 1.1; with HCC-38 (1000 nM), 41.2 ± 0.74; in the assay with HCC-38 (10000 nM), 35.2 ± 0.52; in the assay with ZR-75-1 (10 nM), 89.6 ± 11; with ZR-75-1 (100 nM) it was 38.6 ± 12. Further, the relative cell number in the assay on ZR-75-1 (1000 nM) turned out to be 40.6 ± 11; in the assay on ZR-75-1 (10000 nM) it was 36.9 ± 8; in the assay on MDA-MB-231 (10 nM), 97.5 ± 4.3; in the assay with MDA-MB-231 (100 nM), 101 ± 17; in the assay on MDA-MB-231 (1000 nM), 91.2 ± 9.4; with MDA-MB-231 (10000 nM), 33.9 ± 8.7. The relative cell number with SKBR3 (10 nM) amounted to 116 ± 42; with SKBR3 (100 nM), 41 ± 1.5; with SKBR3 (1000 nM), 22.1 ± 12; in the assay with SKBR3 (10000 nM), 25.5 ± 6.4; in the assay on BT-20 (10 nM), 98.43 ± 0.61; in the assay with BT-20 (100 nM) it was 80.6 ± 3.4. For the same compound, the relative cell number in the assay on BT-20 (1000 nM) was 51.2 ± 16; with BT-20 (10000 nM) it was 37.8 ± 12.
